Results as given in the supplement of paper PMC13207355.

How the values were obtained:
Conditions in all cases: exposure time: 72 h
[1] = system: FT3469 (normal neural stem cell line); experiment: surviving fraction (nuclei count normalised to DMSO); higher = more cells surviving (less toxic)
[2] = system: E57 (patient-derived glioblastoma stem cells of mesenchymal subtype); experiment: as above
[3] = system: E31 (patient-derived glioblastoma stem cells of proneural subtype); experiment: as above
[4] = system: E34 (patient-derived glioblastoma stem cells of proneural subtype); experiment: as above
[5] = system: E28 (patient-derived glioblastoma stem cells of classical subtype); experiment: as above
[6] = system: E21 (patient-derived glioblastoma stem cells of mesenchymal subtype); experiment: as above
[7] = system: E13 (patient-derived glioblastoma stem cells of classical subtype); experiment: as above
[8] = system: FT3469; experiment: phenotypic distance (Euclidean, principal components) from DMSO controls (arbitrary units); higher = stronger morphological change
[9] = system: E57; experiment: as above
[10] = system: E31; experiment: as above
[11] = system: E34; experiment: as above
[12] = system: E28; experiment: as above
[13] = system: E21; experiment: as above
[14] = system: E13; experiment: as above
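Wherever phenotypic distance (Euclidean, principal components) from DMSO controls is given: cell Painting imaging in 384-well plates, CellProfiler features reduced to at least 20 principal components, Euclidean distance versus same-plate DMSO vehicle wells (0.1% v/v), median over six images per well.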
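Wherever surviving fraction (nuclei count normalised to DMSO) is given: nuclei counted by high-content imaging of Hoechst-stained cells in laminin-coated 384-well plates, relative to 0.1% DMSO vehicle wells, with staurosporine as cell-death control.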

NCc1ccccc1CC(=O)N[C@@H]1C(=O)N2C(C(=O)O)=C(CSc3nnnn3CC(=O)O)CS[C@H]12 [Ceforanide]
Conditions	phenotypic distance	surviving fraction
[1], 4.1 nM	–	0.899
[1], 12.3 nM	–	0.944
[1], 37 nM	–	0.806
[1], 111.1 nM	–	1.05
[1], 333.3 nM	–	0.931
[1], 1000 nM	–	1.08
[1], 3000 nM	–	0.785
[2], 4.1 nM	–	0.871
[2], 12.3 nM	–	0.985
[2], 37 nM	–	0.982
[2], 111.1 nM	–	0.995
[2], 333.3 nM	–	1
[2], 1000 nM	–	0.926
[2], 3000 nM	–	0.897
[3], 4.1 nM	–	0.969
[3], 12.3 nM	–	0.993
[3], 37 nM	–	0.944
[3], 111.1 nM	–	1.06
[3], 333.3 nM	–	0.801
[3], 1000 nM	–	0.895
[3], 3000 nM	–	1.03
[4], 4.1 nM	–	1.07
[4], 12.3 nM	–	1.01
[4], 37 nM	–	1.2
[4], 111.1 nM	–	0.873
[4], 333.3 nM	–	1.1
[4], 1000 nM	–	0.901
[4], 3000 nM	–	0.86
[5], 4.1 nM	–	1.01
[5], 12.3 nM	–	0.94
[5], 37 nM	–	1.19
[5], 111.1 nM	–	0.907
[5], 333.3 nM	–	0.952
[5], 1000 nM	–	0.963
[5], 3000 nM	–	0.899
[6], 4.1 nM	–	0.96
[6], 12.3 nM	–	1
[6], 37 nM	–	1
[6], 111.1 nM	–	0.945
[6], 333.3 nM	–	0.927
[6], 1000 nM	–	0.94
[6], 3000 nM	–	0.913
[7], 4.1 nM	–	0.857
[7], 12.3 nM	–	0.899
[7], 37 nM	–	0.892
[7], 111.1 nM	–	0.955
[7], 333.3 nM	–	0.967
[7], 1000 nM	–	0.991
[7], 3000 nM	–	0.821
[8], 4.1 nM	0.788	–
[8], 12.3 nM	0.666	–
[8], 37 nM	0.745	–
[8], 111.1 nM	0.803	–
[8], 333.3 nM	0.916	–
[8], 1000 nM	0.851	–
[8], 3000 nM	1.28	–
[9], 4.1 nM	0.735	–
[9], 12.3 nM	0.47	–
[9], 37 nM	0.604	–
[9], 111.1 nM	0.425	–
[9], 333.3 nM	0.594	–
[9], 1000 nM	0.792	–
[9], 3000 nM	0.948	–
[10], 4.1 nM	0.821	–
[10], 12.3 nM	0.599	–
[10], 37 nM	0.687	–
[10], 111.1 nM	0.68	–
[10], 333.3 nM	0.855	–
[10], 1000 nM	0.963	–
[10], 3000 nM	0.779	–
[11], 4.1 nM	0.618	–
[11], 12.3 nM	0.456	–
[11], 37 nM	0.886	–
[11], 111.1 nM	0.834	–
[11], 333.3 nM	0.882	–
[11], 1000 nM	0.522	–
[11], 3000 nM	0.877	–
[12], 4.1 nM	0.755	–
[12], 12.3 nM	0.829	–
[12], 37 nM	0.872	–
[12], 111.1 nM	0.701	–
[12], 333.3 nM	0.858	–
[12], 1000 nM	1.54	–
[12], 3000 nM	1.07	–
[13], 4.1 nM	0.452	–
[13], 12.3 nM	0.464	–
[13], 37 nM	0.533	–
[13], 111.1 nM	0.73	–
[13], 333.3 nM	0.545	–
[13], 1000 nM	0.643	–
[13], 3000 nM	0.896	–
[14], 4.1 nM	0.868	–
[14], 12.3 nM	0.834	–
[14], 37 nM	0.565	–
[14], 111.1 nM	2.99	–
[14], 333.3 nM	0.49	–
[14], 1000 nM	0.481	–
[14], 3000 nM	1.06	–
